Data as given in US9453242B2, “Method and culture medium for preparing mammalian ovum or embryo in which zona pellucida has been thinned or eliminated, and method for fertilization using mammalian ovum prepared by same method” (NATIONAL UNIVERISTY CORPORATION KUMAMOTO UNIVERSITY, priority 2010, dated 2016).
Like-named read-outs stand apart in the source and are kept apart here.

Experiments:
[1] = system: protein thiol in zona pellucida; details: glutathione 0.25 to 2.0 mM, 37° C., 1 hour; Alexa Fluor 488 C5-maleimide
Experimental: Mouse fresh unfertilized ovums in which cumulus cells had been removed prepared according to the above-described “1. Preparation of oocyte” were prepared, then, 100 μl of an HTF culture medium containing glutathione at various concentrations (0, 0.25, 0.5, 0.75, 1.0, 1.25, 1.5 and 2.0 mM) was dropped onto the bottom of a petri dish, and 50 embryos were inserted into this, and treated at 37° C. for 1 hour. Thereafter, a protein thiol in zona pellucida was detected by using a thiol-reactive fluorescent dye (Alexa Fluor 488 C5-maleimide).

[2] = Experimental: Mouse fresh unfertilized ovums in which cumulus cells had been removed prepared according to the above-described “1. Preparation of oocyte” were prepared, then, 10 μl of an HTF culture medium containing glutathione at various concentrations (5, 10, 25, 50, 100, 200 and 300 mM) was dropped onto the bottom of a petri dish, and 20 ovums were inserted into this, and the time until elimination of zona pellucida was measured.
[3] = system: mouse unfertilized ovum (cumulus-oocyte complexes)
Experimental: A sperm suspension is pre-incubated in 90 μl of a TYH culture medium at 37° C. for 30 minutes, and under a stereomicroscope, sperms showing motility are collected, avoiding nonmotile sperms, and used for fertilization. The pre-incubated sperm suspension (10 μl) is added to 90 μl of an HTF culture medium (±glutathione) into which cumulus-oocyte complexes (COCs) have been previously introduced (insemination), and these are co-incubated in an incubator for 5 to 6 hours (37° C., 5% CO2), thereby performing fertilization. Thereafter, the ovum is washed with drops of new HTF, and the ovum is observed. Those judged to parthenogenetic (only one pronucleus is recognized in ooplasm) are excluded, and on the following day (24 hours after insemination), only 2-cell stage embryos are selected, and fertilization rate is determined according to the following formula. In vitro fertilization rate (%)=(number of 2-cell stage embryo)/(number of 2-cell stage embryo+number of unfertilized ovum)×100
According to the ordinary method as described above, fresh sperms and frozen sperms of C57BL/6J mice and refrigerated sperms (refrigerated for 2 days) of ICR mice were used to prepare sperm suspensions, which were used for conducting in vitro fertilization. Further, according to the ordinary method as described above, mouse fresh unfertilized ovums were prepared and cumulus-oocyte complexes were obtained.
The HTF culture medium was prepared according to the composition table described above. To the prepared HTF culture medium was added reduced glutathione so that its concentration was 1 mM (0.307 mg/ml), to prepare a glutathione-containing culture medium. Specifically, the HTF culture medium was prepared according to the composition table, and the culture medium was enclosed in an amount of 5 ml for each operation into an ample (component A). Further, 30.7 mg of reduced glutathione (available from SIGMA) and 593.8 mg of NaCl were mixed, then, the mixture was dispensed in one-time use amount (glutathione 1.535 mg/mixture 31.225 mg) (component B). Until use, these reagents were refrigerated, and directly before use, the component A and the component B were mixed and used for insemination. As the control, only the component A (THF culture medium containing no glutathione added) was used.
Specifically, into 90 μl of a HTF culture medium (glutathione concentration: 1 mM) containing cumulus-oocyte complexes (COCs) in a dish were added sperm suspensions (collected motile sperms) of fresh sperms, frozen sperms and refrigerated sperms each in an amount of 10 μl, and fertilization was conducted and fertilization rate was determined according to the above-described theory. An HTF culture medium containing no glutathione was used as the control.
Fertilization rate was investigated using various reduced glutathione concentrations, in the same manner as in Example 1. As the sperm, frozen sperms of C57BL/6J mice were used, and processed according to FIG. 1.
Regarding the sperms, fresh sperms and frozen sperms pre-incubated with MBCD were used in performing fertilization. The concentration of glutathione in an HTF culture medium was 0.25 mM in the case of fresh sperms and 1 mM in the case of frozen sperms. The sperms were pre-incubated with a MBCD-containing TYH culture medium (no glutathione) before fertilization, in the same manner as in Example 3. The pre-incubation time was 1 hour in the case of fresh sperms and 30 minutes in the case of frozen sperms.
The sperms were pre-incubated with a MBCD-containing TYH culture medium (no glutathione) before fertilization, in the same manner as in Example 3. The pre-incubation time was 1 hour.

[4] = system: zona pellucida-eliminated ovum; details: frozen C57BL/6 sperms

## N[C@@H](CCC(=O)N[C@@H](CS)C(=O)NCC(=O)O)C(=O)O [glutathione, reduced glutathione]
[1]
  fluorescent intensity in zona pellucida (free thiol group): the fluorescent intensity in zona pellucida increased depending on the concentration of glutathione
[2]; HTF culture medium with glutathione 5 mM
  pH: 7.3
[2]; HTF culture medium with glutathione 10 mM
  pH: 7.4
[2]; HTF culture medium with glutathione 25 mM
  pH: 6.1
[2]; HTF culture medium with glutathione 50 mM
  pH: 4.0
[2]; HTF culture medium with glutathione 100 mM
  pH: 3.5
[2]; HTF culture medium with glutathione 200 mM
  pH: 3.1
[2]; HTF culture medium with glutathione 300 mM
  pH: 3.1
[3]; 129T2/SvEmsJ, cryopreserved sperms pre-incubated with MBCD, glutathione 1 mM
  fertilization rate (%): 82.1%
[3]; 129T2/SvEmsJ, fresh sperms pre-incubated with MBCD, glutathione 0.25 mM
  fertilization rate (%): 84.9%
[3]; B6C3F1, cryopreserved sperms pre-incubated with MBCD, glutathione 1 mM
  fertilization rate (%): 87.6%
[3]; B6C3F1, fresh sperms pre-incubated with MBCD, glutathione 0.25 mM
  fertilization rate (%): 97.7%
[3]; BALB/c, cryopreserved sperms pre-incubated with MBCD, glutathione 1 mM
  fertilization rate (%): 68.3%
[3]; BALB/c, fresh sperms pre-incubated with MBCD, glutathione 0.25 mM
  fertilization rate (%): 74.7%
[3]; BDF1, cryopreserved sperms pre-incubated with MBCD, glutathione 1 mM
  fertilization rate (%): 98.3%
[3]; BDF1, fresh sperms pre-incubated with MBCD, glutathione 0.25 mM
  fertilization rate (%): 94.2%
[3]; C3H/He, cryopreserved sperms pre-incubated with MBCD, glutathione 1 mM
  fertilization rate (%): 98.0%
[3]; C3H/He, fresh sperms pre-incubated with MBCD, glutathione 0.25 mM
  fertilization rate (%): 97.5%
[3]; C57BL/6J, cryopreserved sperms pre-incubated with MBCD, glutathione 1 mM
  fertilization rate (%): 97.9%
[3]; C57BL/6J, fresh sperms pre-incubated with MBCD, glutathione 0.25 mM
  fertilization rate (%): 95.6%
[3]; C57BL/6N, cryopreserved sperms pre-incubated with MBCD, glutathione 1 mM
  fertilization rate (%): 90.9%
[3]; C57BL/6N, fresh sperms pre-incubated with MBCD, glutathione 0.25 mM
  fertilization rate (%): 90.9%
[3]; DBA/2N, cryopreserved sperms pre-incubated with MBCD, glutathione 1 mM
  fertilization rate (%): 95.8%
[3]; DBA/2N, fresh sperms pre-incubated with MBCD, glutathione 0.25 mM
  fertilization rate (%): 95.2%
[3]; ICR, cryopreserved sperms pre-incubated with MBCD, glutathione 1 mM
  fertilization rate (%): 94.9%
[3]; ICR, fresh sperms pre-incubated with MBCD, glutathione 0.25 mM
  fertilization rate (%): 93.8%
[3]; fresh sperms
  reduced glutathione concentration giving remarkable improvement in fertilization rate: ≥ 0.075 mg/mL
[3]; fresh sperms of C57BL/6J mice, glutathione 1 mM in HTF
  fertilization rate (%): 82.5%
[3]; fresh sperms, various lineages, glutathione 0.25 mM
  effect on fertilization rate: sufficient improvement in fertilization rate
[3]; frozen C57BL/6J sperms
  glutathione concentration at which improvement in fertilization rate was confirmed: ≥ 0.5 mM
[3]; frozen sperms of C57BL/6J mice, glutathione 1 mM in HTF
  fertilization rate (%): 92.1%
[3]; frozen sperms, all mouse lineages, glutathione 1 mM
  effect on fertilization rate: remarkable improvement in fertilization rate for frozen sperms
[3]; glutathione 0.25 mM, frozen C57BL/6J sperms
  number of 2-cell stage embryo(%): 67%
[3]; glutathione 0.25 mM, frozen C57BL/6J sperms, 279 oocytes
  number of 2-cell stage embryo: 187
[3]; glutathione 0.50 mM, frozen C57BL/6J sperms
  number of 2-cell stage embryo(%): 79%
[3]; glutathione 0.50 mM, frozen C57BL/6J sperms, 316 oocytes
  number of 2-cell stage embryo: 251
[3]; glutathione 0.75 mM, frozen C57BL/6J sperms
  number of 2-cell stage embryo(%): 82%
[3]; glutathione 0.75 mM, frozen C57BL/6J sperms, 307 oocytes
  number of 2-cell stage embryo: 252
[3]; glutathione 1 mM, fresh, frozen and refrigerated sperms
  effect on fertilization rate: significant improvement in fertilization rate
[3]; glutathione 1.00 mM, frozen C57BL/6J sperms
  number of 2-cell stage embryo(%): 92%
[3]; glutathione 1.00 mM, frozen C57BL/6J sperms, 276 oocytes
  number of 2-cell stage embryo: 254
[3]; glutathione 1.25 mM, frozen C57BL/6J sperms
  number of 2-cell stage embryo(%): 93%
[3]; glutathione 1.25 mM, frozen C57BL/6J sperms, 292 oocytes
  number of 2-cell stage embryo: 272
[3]; glutathione 1.50 mM, frozen C57BL/6J sperms
  number of 2-cell stage embryo(%): 89%
[3]; glutathione 1.50 mM, frozen C57BL/6J sperms, 294 oocytes
  number of 2-cell stage embryo: 262
[3]; glutathione 2.00 mM, frozen C57BL/6J sperms
  number of 2-cell stage embryo(%): 92%
[3]; glutathione 2.00 mM, frozen C57BL/6J sperms, 309 oocytes
  number of 2-cell stage embryo: 285
[3]; glutathione 5.00 mM, frozen C57BL/6J sperms
  number of 2-cell stage embryo(%): 86%
[3]; glutathione 5.00 mM, frozen C57BL/6J sperms, 292 oocytes
  number of 2-cell stage embryo: 251
[3]; glutathione 10.00 mM, frozen C57BL/6J sperms
  number of 2-cell stage embryo(%): 81%
[3]; glutathione 10.00 mM, frozen C57BL/6J sperms, 341 oocytes
  number of 2-cell stage embryo: 276
[3]; refrigerated sperms (2 days) of ICR mice, glutathione 1 mM in HTF
  fertilization rate (%): 63.9%
[3]; refrigerated sperms of C57BL/6J mice pre-incubated with MBCD 1 hour, glutathione 0.5 mM
  fertilization rate: 85.4%
[4]; glutathione 100 mM pre-treatment
  fertilization and development of zona pellucida-eliminated ovum: fertilization occurred and the development of an ovum (ovum division) was confirmed
[4]; of 70 zona pellucida-eliminated embryos (glutathione 100 mM)
  embryos developed to the blastocyst stage: 66
